Inconclusive results and toxic doses are left out. Starred links: 1 amine or outer side, 2 acyl side, 3 side chain; linkers in the order of their positions; H or OH if unused. Positions of bridges follow the written chain, without caps; N, C: chain ends. Non-standard residues stand in square brackets, D forms with d. Residues, ends and D or L forms follow the SMILES beside them. Chains are numbered I, II in the order given. Actinocin(1to9) = Cc1c2oc3c(C)ccc(C(=O)[*:2])c3nc-2c(C(=O)[*:1])c(N)c1=O; NMeV = CN[CH](C(=O)O)C(C)C; Sar = CNCC(=O)O
Tested on: BDF1 mice, P388 leukemia ip, median survival T/C
Test: NCI In Vivo Anticancer Drug Screen. Data for tumor model P388 Leukemia (intraperitoneal) in B6D2F1 (BDF1) mice
Conditions: endpoint: median survival time, higher = longer survival
In short: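 Steps: implant the tumour, treat one group with compound and another with vehicle, record survival, then divide treated by control.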

O=C(Nc1ccc(NC2=NCCN2)cc1)c1cccc(C(=O)Nc2ccc(NC3=NCCN3)cc2)c1
T/C (dose: 5.0 mg/kg/injection, schedule: Q01DX009 (ip), vehicle: saline with Tween-80): 116 % of control
T/C (dose: 5.0 mg/kg/injection, schedule: Q04DX003 (ip), vehicle: saline with Tween-80): 100 % of control
T/C (dose: 10.0 mg/kg/injection, schedule: Q04DX003 (ip), vehicle: saline with Tween-80): 100 % of control
T/C (dose: 13.0 mg/kg/injection, schedule: Q01DX009 (ip), vehicle: saline with Tween-80): 150 % of control
T/C (dose: 20.0 mg/kg/injection, schedule: Q04DX003 (ip), vehicle: saline with Tween-80): 122 % of control
T/C (dose: 30.0 mg/kg/injection, schedule: Q01DX009 (ip), vehicle: saline with Tween-80): 122 % of control

Nc1nc(=O)n(CC(=O)c2cccs2)cc1F
T/C (dose: 50.0 mg/kg/injection, schedule: Q01DX009 (ip), vehicle: saline with Tween-80): 100 % of control
T/C (dose: 100.0 mg/kg/injection, schedule: Q01DX009 (ip), vehicle: saline with Tween-80): 90 % of control
T/C (dose: 100.0 mg/kg/injection, schedule: Q04DX003 (ip), vehicle: saline with Tween-80): 95 % of control
T/C (dose: 200.0 mg/kg/injection, schedule: Q01DX009 (ip), vehicle: saline with Tween-80): 86 % of control
T/C (dose: 200.0 mg/kg/injection, schedule: Q04DX003 (ip), vehicle: saline with Tween-80): 100 % of control

C=C(C)C(O)C(O)c1cc2ccc(=O)oc2cc1OC (configuration not stated)
T/C (dose: 8.75 mg/kg/injection, schedule: Q01DX009 (ip), vehicle: carboxymethylcellulose (CMC)): 96 % of control
T/C (dose: 17.5 mg/kg/injection, schedule: Q01DX009 (ip), vehicle: carboxymethylcellulose (CMC)): 88 % of control

CCC(C)C1NC(=O)C(NC(=O)c2c3nc4c(C(=O)NC5C(=O)NC(C(C)CC)C(=O)N6CCCC6C(=O)N(C)CC(=O)N(C)C(C(C)C)C(=O)OC5C)ccc(C)c4oc-3c(C)c(=O)c2N)C(C)OC(=O)C(C(C)C)N(C)C(=O)CN(C)C(=O)C2CCCN2C1=O (configuration not stated) (I: TIP[Sar][NMeV] / II: TIP[Sar][NMeV]; ester I:1-I:C, II:1-II:C; linker I:N-II:N via Actinocin(1to9); configuration not given here)
T/C (dose: 0.05 mg/kg/injection, schedule: Q01DX010 (ip), vehicle: saline): 245 % of control
T/C (dose: 0.1 mg/kg/injection, schedule: Q01DX010 (ip), vehicle: saline): 300 % of control
T/C (dose: 0.2 mg/kg/injection, schedule: Q01DX001 (ip), vehicle: water): 162 % of control
T/C (dose: 0.4 mg/kg/injection, schedule: Q01DX001 (ip), vehicle: water): 157 % of control
T/C (dose: 0.8 mg/kg/injection, schedule: Q01DX001 (ip), vehicle: water): 166 % of control
T/C (dose: 1.6 mg/kg/injection, schedule: Q01DX001 (ip), vehicle: water): 86 % of control
T/C (dose: 3.1 micrograms/kg/injection, schedule: Q01DX001 (ip), vehicle: saline): 113 % of control
T/C (dose: 3.1 micrograms/kg/injection, schedule: Q01DX010 (ip), vehicle: saline): 180 % of control
T/C (dose: 3.1 micrograms/kg/injection, schedule: Q04DX003 (ip), vehicle: saline): 109 % of control
T/C (dose: 6.2 micrograms/kg/injection, schedule: Q01DX010 (ip), vehicle: saline): 175 % of control
T/C (dose: 6.3 micrograms/kg/injection, schedule: Q01DX001 (ip), vehicle: saline): 118 % of control
T/C (dose: 6.3 micrograms/kg/injection, schedule: Q04DX003 (ip), vehicle: saline): 118 % of control
T/C (dose: 12.5 micrograms/kg/injection, schedule: Q01DX001 (ip), vehicle: saline): 122 % of control
T/C (dose: 12.5 micrograms/kg/injection, schedule: Q01DX009 (ip), vehicle: water): 170 % of control
T/C (dose: 12.5 micrograms/kg/injection, schedule: Q01DX010 (ip), vehicle: saline): 185 % of control
T/C (dose: 25.0 micrograms/kg/injection, schedule: Q01DX001 (ip), vehicle: saline): 122 % of control
T/C (dose: 25.0 micrograms/kg/injection, schedule: Q01DX009 (ip), vehicle: water): 189 % of control
T/C (dose: 25.0 micrograms/kg/injection, schedule: Q01DX010 (ip), vehicle: saline): 220 % of control
T/C (dose: 25.0 micrograms/kg/injection, schedule: Q04DX003 (ip), vehicle: saline): 150 % of control
T/C (dose: 50.0 micrograms/kg/injection, schedule: Q01DX009 (ip), vehicle: water): 200 % of control
T/C (dose: 50.0 micrograms/kg/injection, schedule: Q01DX010 (ip), vehicle: saline): 215 % of control
T/C (dose: 50.0 micrograms/kg/injection, schedule: Q04DX003 (ip), vehicle: saline): 181 % of control
T/C (dose: 75.0 micrograms/kg/injection, schedule: Q04DX003 (ip), vehicle: water): 162 % of control
T/C (dose: 100.0 micrograms/kg/injection, schedule: Q01DX009 (ip), vehicle: water): 206 % of control
T/C (dose: 100.0 micrograms/kg/injection, schedule: Q01DX010 (ip), vehicle: saline): 295 % of control
T/C (dose: 100.0 micrograms/kg/injection, schedule: Q04DX003 (ip), vehicle: saline): 190 % of control
T/C (dose: 150.0 micrograms/kg/injection, schedule: Q04DX003 (ip), vehicle: water): 172 % of control
T/C (dose: 200.0 micrograms/kg/injection, schedule: Q01DX001 (ip), vehicle: saline): 177 % of control
T/C (dose: 200.0 micrograms/kg/injection, schedule: Q01DX010 (ip), vehicle: saline): 110 % of control
T/C (dose: 200.0 micrograms/kg/injection, schedule: Q04DX003 (ip), vehicle: saline): 200 % of control
T/C (dose: 300.0 micrograms/kg/injection, schedule: Q04DX003 (ip), vehicle: water): 209 % of control
T/C (dose: 400.0 micrograms/kg/injection, schedule: Q01DX001 (ip), vehicle: saline): 190 % of control
T/C (dose: 400.0 micrograms/kg/injection, schedule: Q04DX003 (ip), vehicle: saline): 231 % of control
T/C (dose: 600.0 micrograms/kg/injection, schedule: Q04DX003 (ip), vehicle: water): 224 % of control

— PubChem BioAssay AID328 (DTP/NCI, 2004)
